“And” between values parts separate entries of the source, which are not always exact repeats. Equal entries are not always repeated.

Consider one molecule from patent US11292778B2, “Heterocyclyl polymethine IR chromophores” (The Regents of the University of California, priority 2017, dated 2022).

Common to all, as to type: physicochemical
Data set [1] is described as follows: Absolute fluorescence quantum yield using an integrating sphere. The settings on record: dichloromethane; for ΦF (fluorescence quantum yield): absolute value. How it is done:
Polymethine dyes disclosed herein are characterized with respect to their photophysics including absorption, emission, extinction coefficient, quantum yields, and fluorescence lifetime. All quantum yields values obtained are absolute quantum yields values measured using an integrating sphere. Photostabilities are evaluated by sample irradiation with high powered LEDs. Additionally, solvatochromism, solvent compatibility, and stability are assessed.

A short description of data set [2]: Photobleaching under continuous-wave irradiation at 532 nm. To be noted: dichloromethane. How it is done:
Photostabilities of the Flay series were measured under continuous-wave irradiation (532 nm, 0.53 fluence).

A further data set is described as follows: Solvatochromism of Flav7. The source says:
This family of flavylium dyes has photophysical qualities that are complementary to commonly used cyanine dyes. However, the premier dye in the series is the Flav7 (3) as few emissive polymethine dyes exist in this region. Thus, we thoroughly investigated its stability. First, we explored the solvatochromism of Flav7. […] However, in polar solvents, spectral broadening and accentuation of a high-energy shoulder were observed. This behavior is consistent with SWIR polymethine dyes that experience ground state symmetry breaking due to stabilization of an asymmetric electronic structure.

A short description of data set [3]: Emission spectra of the dyes in DCM. The settings on record: dichloromethane, dyes 1, 3-6 and reference dyes. The source says:
(§1) The absorbance spectra in FIG. 2 and FIG. 5 were obtained in DCM on a JASCO V-770 UV-Visible/[…] spectrophotometer with a 2000 nm/min or 4000 nm/min scan rate. Plotted are the baseline corrected and normalized data. The emission spectra in FIG. 2 were taken in DCM on either a Horiba Instruments PTI QuantaMaster Series fluorometer (6), a Fluoromax-3 spectrofluorometer (1, 3-5), or home-built InGaAs array detector (Princeton Instruments). For 6 the following parameters were used: ex. 610 nm, emission collected from 620-900 nm, slits 5 nm, step size 1 nm, integration time 1 s. Plotted is the DCM corrected, baseline corrected, normalized data. For 1, and 3-5, the following parameters were used: slits 5 nm, step size 1 nm, integration time, 0.25 s. Excitation values and emission collection were as follows: 1 (ex. 460, collection 470-800 nm), 5 (ex. 675 nm, collection 685-950 nm), 4 (ex. 840 nm, emission 850-1100 nm), 3 (ex. 730 nm, emission 950-1400). Plotted are the baseline corrected, normalized data. The emission spectra in FIG. 5 were taken in dichloromethane on a Horiba Instruments QuantaMaster Series fluorometer with excitation slits: 15 nm, emission slits: 30 nm, step size: 1 nm, integration time: 0.1 s and excitation wavelengths as indicated.

The nature of data set [4]: Stability of Flav7 in acetonitrile in the presence of methanol, ethanol or water (absorption over time, LCMS). To be noted: for change of absorption over time: over 4 hours. How it is done: Concerned about the structure's susceptibility to nucleophilic attack, the stability of Flav7 in the presence of methanol, ethanol, and water was investigated. 3 was dissolved in acetonitrile, and 1-50% water, ethanol, or methanol was introduced. Changes in absorption spectra over time were monitored. […] Further evidence that 3 is stable to water include UV/Vis monitoring of the dose-dependent addition of water to 3 in acetonitrile followed by water removal.
(§2) Finally, the photoluminescence of Flav7 was compared to the prominent SWIR polymethine dyes, IR-26 and IR-1061. IR-26 has been widely-employed as a standard for this region, while IR-1061 has recently been the active component of nanomaterials for […] in vivo imaging. Despite numerous studies which rely on these dyes, the reported ΦF for IR-26 have been inconsistent, and the ΦF of IR-1061 has yet to be thoroughly characterized. Consequently, to establish that Flav7 is more emissive than existing SWIR polymethine dyes, each dye's emission was directly compared using a SWIR camera. We prepared solutions of 3, IR-26, and IR-1061 in dichloromethane with identical absorbance at 808 nm, excited with a diffuse 808 nm laser, and imaged their emission over 1000-1500 nm.

A short description of data set [5]: Comparative emission imaging with a SWIR InGaAs camera, 808 nm excitation.
Excerpt: as §2
Spatially dispersed 808 nm illumination was used to image 1 ml samples in 2.5 mL cuvettes of the SWIR dyes alongside a DCM blank. Each dye was compared at the same position to ensure consistent camera illumination. SWIR images were collected on an InGaAs camera (Princeton Instruments, NIRvana 640) with a 1000 nm long-pass filter. The camera was cooled to −80° C., the analog to digital (AD) conversion rate set to 2 MHz, the gain set to high, and different exposure times used to achieve sufficient signal and/or frame rates. All images were background- and blemish-corrected within the LightField imaging software. […]

A short description of data set [6]: Absorbance spectra of the dyes in DCM (UV-Visible/NIR spectrophotometer).
Excerpt: as §1

Consider `CN(C)c1ccc2c(c1)OC(c1ccccc1)=C/C2=C\C=C1/CCCC(/C=C/c2cc(-c3ccccc3)[o+]c3cc(N(C)C)ccc23)=C1Cl.[O-][Cl+3]([O-])([O-])[O-]` [Dye 3, 4-((E)-2-((E)-2-chloro-3-(2-((E)-7-(dimethylamino)-2-phenyl-4H-chromen-4-ylidene)ethylidene)cyclohex-1-en-1-yl)vinyl)-7-(dimethylamino)-2-phenylchromenylium perchlorate], for which the “QE, εΦF (quantum efficiency)” value in data set [1] is 1200 M⁻¹ cm⁻¹; in data set [1] (listed as Flav7) it was 1,200 M^−1cm^−1. Also, the “ΦF (fluorescence quantum yield)” value in data set [1] is 0.53±0.03% and 0.53%; in data set [1] (listed as Flav7), 0.53% and 0.53±0.3%. In addition, in data set [2] (532 nm irradiation), the “relative rate, krel (photobleaching)” value is on record as 40. ± 6. In addition, in data set [2] (continuous-wave irradiation 532 nm, 0.53 fluence), the “raw rate, k (photobleaching)” value stood at 28. ± 3. s^−1 × 10^−3. Moreover, the “ε at 532 nm” value in data set [2] came to 1.4 ± 0.2 M^−1cm^−1 × 10^4. Further, in “Solvatochromism of Flav7” (dichloromethane, dimethyl sulfoxide, acetonitrile, tetrahydrofuran, acetone), the “variation of λmax,abs between solvents” value is given as “minimal variation”. Also, the behaviour in methanol result in “Solvatochromism of Flav7” (methanol as solvent) was “immediate color change”. Also, the “emission (DCM) λmax” value in data set [3] was 1045 nm; in data set [3] (listed as Flav7) it was 1061 nm and 1045 nm. Besides, the “degradation by LCMS over time” value in data set [4] (0.1 mg/mL in acetonitrile with 10% water) is recorded as “no appreciable degradation”. The “change of λmax,abs at 1013 nm” value in data set [4] (acetonitrile with 1% methanol) is on record as “rapid loss”. The figures for the “change of absorption over time” value in data set [4] (acetonitrile with 10% ethanol) and in data set [4] (acetonitrile with 10% water) were “slight loss” and “no significant change”, respectively. Further, in data set [4] (acetonitrile, dose-dependent water addition followed by water removal, UV/Vis), the “absorbance at 1013 nm after water addition and water removal” value was “restored upon water removal”. Further, the “brightness relative to IR-26” value in data set [5] was determined as 13 times. The “emission intensity compared with the other SWIR dyes” value in data set [5] (dichloromethane, identical absorbance at 808 nm, emission 1000-1500 nm) was “brightest of the three dyes”. Further, the “absorption red shift past IR-27” value in data set [6] is given as roughly 40 nm. The “absorption (DCM) λmax” value in data set [6] (dichloromethane, in example paragraphs the longest-wavelength absorbance peak) came to 1026 nm.
